ChEMBL document CHEMBL1142959, “Semisynthetic approaches to laspartomycin analogues” (2007)
Values after ≈ are worked out from the molar mass of the structure shown.

Columns and labels:
Type in all cases: functional
[1] = tested on: Staphylococcus aureus; assay: Antimicrobial activity against methicillin-sensitive Staphylococcus aureus Smith ATCC 19636 by tube dilution method; conditions: Staphylococcus aureus, Smith; read-out: MIC
[2] = tested on: Staphylococcus aureus; assay: Antimicrobial activity against methicillin-resistant Staphylococcus aureus ATCC 43300 by broth microdilution method
[3] = tested on: Staphylococcus epidermidis; assay: Antimicrobial activity against methicillin-resistant Staphylococcus epidermidis ATCC 51625 by broth microdilution method
[4] = tested on: Staphylococcus aureus; assay: Antimicrobial activity against vancomycin-intermediate Staphylococcus aureus CDC HIP 5836 by broth microdilution method
[5] = tested on: Enterococcus faecalis; assay: Antimicrobial activity against vancomycin-sensitive Enterococcus faecalis ATCC 29212 by broth microdilution method
[6] = tested on: Enterococcus faecium; assay: Antimicrobial activity against vancomycin/multidrug-resistant Enterococcus faecium ATCC 51559 by broth microdilution method
[7] = tested on: Staphylococcus aureus; assay: Antimicrobial activity against methicillin-sensitive Staphylococcus aureus Smith ATCC 19636 by broth microdilution method

With `CCCCCCCCCCCCCCCCS(=O)(=O)N[C@@H](Cc1ccccc1)C(=O)N[C@@H](CC(=O)O)C(=O)N[C@H]1CNC(=O)[C@@H]2CCCN2C(=O)[C@H]([C@H](C)CC)NC(=O)[C@H]([C@@H](C)O)NC(=O)CNC(=O)[C@H](CC(=O)O)NC(=O)CNC(=O)[C@H](CC(=O)O)NC(=O)CNC(=O)[C@@H]2CCCCN2C1=O` the MIC [1] was 4 µg/mL (≈ 2.74 µM), the MIC [2] was 8 µg/mL (≈ 5.48 µM) and the MIC [3] was 4 µg/mL (≈ 2.74 µM). It also gave an MIC [4] greater than 64 µg/mL, an MIC [5] of 2 µg/mL (≈ 1.37 µM) and an MIC [6] of 4 µg/mL (≈ 2.74 µM). The MIC [7] was greater than 64 µg/mL.
